In test [1] the test system is A. fumigatus conidia. Nature of the test: Biotin-tagged 30 amino acid peptide binding to heat-inactivated conidia, FITC-streptavidin flow cytometry. On the set-up: species or system Aspergillus fumigatus. The note with it: for peptide binding to A. fumigatus conidia: 5 μg/ml N-term biotin-tagged peptide, 1×10^7 heat-inactivated conidia/ml. The method, then: (§1) A 30 amino acid peptide comprising the KLMAR sequence was generated with an N-terminal biotin-tag. […] 5 μg/ml of the N-term biotin-tagged peptides were incubated with 1×10^7 heat-inactivated conidia/ml from different Aspergillus species and from fungi belonging to the Mucorales order. The peptide binding was subsequently detected with a FITC-coupled streptavidin using flow cytometry (Beckman Coulter, Gallios).
Three 30 amino acid peptides from the CCP2 domain of MASP-1 were generated with an N-terminal biotin-tag. CCP2 Ctrl.Pep1: […], CCP2 Ctrl.Pep2: […], CCP2 Ctrl.Pep3: […]. 5 and 10 μg/ml of the N-term biotin-tagged peptides were incubated with 1×10^7 heat-inactivated A. fumigatus conidia/ml and the peptide binding was detected with a FITC-coupled streptavidin using flow cytometry (BD, Celesta).
5 μg/ml of the N-term biotin-tagged peptides with C→S mutations at position 7 (C7S), position 11 (C11S) and both positions (C7S+C11S) were incubated with 1×10^7 heat-inactivated A. fumigatus conidia/ml. The peptide binding was subsequently detected with a FITC-coupled streptavidin using flow cytometry (BD, Celesta).
5 μg/ml of the N-term biotin-tagged MASP-1 peptide were incubated with 1×10^7 heat-inactivated A. fumigatus conidia/ml in barbital buffer (containing Ca2+) with or without 20 mM EDTA that chelates the calcium. The peptide binding was subsequently detected with a FITC-coupled streptavidin using flow cytometry (Beckman Coulter, Gallios).
The binding of the MASP-1 peptide was compared to the binding of a MASP-3 peptide covering the same protein region and thus having partly overlapping amino acid sequences. MASP-1 peptide: […] (SEQ ID NO: 1). MASP-3 peptide: […] (SEQ ID NO: 3). 5 μg/ml of the N-term biotin-tagged peptides were incubated with 1×10^7 heat-inactivated A. fumigatus conidia/ml. The peptide binding was subsequently detected with a FITC-coupled streptavidin using flow cytometry (Beckman Coulter, Gallios).
For orientation: In flow cytometry, cells or beads pass a laser one at a time.

A further test deals with A. niger. As to the kind of experiment: Biotin-tagged peptide binding to heat-inactivated conidia, flow cytometry. More on the design: species or system Aspergillus niger. The note with it: 5 μg/ml. The method, then:
as §1

Another test deals with A. terreus. Described as above. On the set-up: species or system Aspergillus terreus. The note with it: 5 μg/ml. The method, then: as §1
A further test deals with A. flavus. Described as above. More on the design: species or system Aspergillus flavus. The note with it: 5 μg/ml. The method, then: as §1
A further test deals with Lichtemia corymbifera. Described as above. The note with it: 5 μg/ml. The method, then:
as §1

In a further test the test system is Mucor circinelloides. The description is as above. The note with it: 5 μg/ml. The method, then: as §1
The subject of a further test is Rhizopus arrhizus. The test is described as above. The note with it: 5 μg/ml. The method, then: as §1
Another test deals with HMEC-1 cells. As to the kind of experiment: Peptide binding to human cells, flow cytometry. To be noted: 5 μg/ml; 1×10^7 cells/ml. The method, then:
(§2) 5 μg/ml of the N-term biotin-tagged MASP-1 peptide was incubated with THP-1 and HMEC-1 cells (1×10^7 cells/ml). The peptide binding was subsequently detected with a FITC-coupled streptavidin using flow cytometry (Beckman Coulter, Gallios).

For another test, the system named is THP-1 cells. Nature of the test: Peptide binding to human cells, flow cytometry. The note with it: 5 μg/ml; 1×10^7 cells/ml. The method, then: as §2
The test system of the next test is Aspergillus fumigatus. As to the kind of experiment: Recombinant MASP-1 binding to A. fumigatus growth stages, fluorescence microscopy. To be noted: 5 μg/ml, resting conidia, swollen conidia, germ tubes and hyphae. The method, then: MASP-1 binding was tested on the different growth stages of A. fumigatus. First, the A. fumigatus conidia were incubated on microscopy glass slides for 0, 4, 8 and 16 hours to obtain resting conidia, swollen conidia, germ tubes and hyphae. Recombinant MASP-1 was then added in a concentration of 5 μg/ml and binding was detected with a pan anti-MASP-1/-3/MAP-1 monoclonal antibody 8B3 and Alexa fluor 488-coupled goat anti-mouse antibody. […] This is very surprising since until now, MASP-1 is known only to interact with endogenous pattern recognition molecules (PRMs) and not so-called pathogen-associated molecular patterns (PAMPs).
MASP-1, a serine protease from the complement system, binds directly to various pathogenic fungi, for example, Aspergillus fumigatus and this knowledge can be utilized to design a targeted antifungal compound. MASP-1 binding was tested on the different growth stages of A. fumigatus. First, the A. fumigatus conidia were incubated on microscopy glass slides for 0, 4, 8 and 16 hours to obtain resting conidia, swollen conidia, germ tubes and hyphae. Recombinant MASP-1 was then added in a concentration of 5 μg/ml and binding was detected with a pan anti-MASP-1/-3/MAP-1 monoclonal antibody 8B3 and Alexa fluor 488-coupled goat anti-mouse antibody.

Test [2] relates to A. fumigatus conidia. Nature of the test: rMASP-1 (wild-type/mutated) binding to heat-inactivated conidia, flow cytometry. The note with it: 5 μg/ml, 1×10^7 heat-inactivated conidia/ml. On the set-up: species or system Aspergillus fumigatus. The method, then: A. fumigatus conidia were heat-inactivated (15 min 121° C.) to eliminate contamination in the laboratory. 1×10^7 conidia/ml were incubated with 5 μg/ml recombinant wild-type MASP-1 (^444KLMAR^448) or mutated rMASP-1 (^444DDDDK^448). The binding of MASP-1 was detected using 10 μg/ml of a pan anti-MASP-1/-3/MAP-1 monoclonal antibody 8B3 followed by a FITC-conjugated goat anti-mouse polyclonal antibody. Binding was measured as the mean fluorescence intensity using flow cytometry (Beckman Coulter, Gallios).
The experiment in this example 2A was performed using the method as described in example 2.

For the molecule “MASP-1 peptide: 30 amino acid MASP-1 peptide GRSLPTCLPVCGLPKFSRKLMARIFNGRPA (SEQ ID NO: 1)”, in the test on A. fumigatus conidia [1], the “peptide binding to A. fumigatus conidia” value is recorded as “successfully bound”. The “peptide binding to A. fumigatus conidia with calcium” value in the test on A. fumigatus conidia [1] (5 μg/ml, barbital buffer (containing Ca2+) without EDTA) is “bound equally well”. For the same molecule, the “peptide binding to A. fumigatus conidia without calcium” value in the test on A. fumigatus conidia [1] (5 μg/ml, barbital buffer with 20 mM EDTA) is given as “bound equally well”. In addition, the “peptide binding to A. fumigatus conidia (median fluorescence intensity), CCP2 domain comparison” value in the test on A. fumigatus conidia [1] (5 and 10 μg/ml, heat-inactivated conidia, BD Celesta) was “bound”. The “peptide binding to A. niger conidia” value in the test with A. niger is on record as “successfully bound”. The “peptide binding to A. terreus conidia” value in the test on A. terreus was “successfully bound”. In addition, in the test with A. flavus, the “peptide binding to A. flavus conidia” value is reported as “successfully bound”. For the same molecule, in the test on Lichtemia corymbifera, the “peptide binding to Lichtemia corymbifera conidia” value is listed as “successfully bound”. In addition, the “peptide binding to Mucor circinelloides conidia” value in the test on Mucor circinelloides is “successfully bound”. Also, the “peptide binding to Rhizopus arrhizus conidia” value with Rhizopus arrhizus is reported as “successfully bound”. Moreover, the “peptide binding to HMEC-1 endothelial cell line” value in the test with HMEC-1 cells was “did not show any binding”. In addition, the “peptide binding to THP-1 monocytic cell line” value with THP-1 cells is “did not show any binding”.

Consider “MASP-3 peptide: 30 aa MASP-3 peptide covering the same protein region, GRSLPTCLPECGQPSRSLPSLVKRIIGGRN (SEQ ID NO: 3) (listed as Homo sapiens) [reference compound]”, for which the “peptide binding to A. fumigatus conidia” value with A. fumigatus conidia [1] is reported as “did not bind”. The “peptide binding to HMEC-1 endothelial cell line” value in the test on HMEC-1 cells is given as “Neither of the 30 aa MASP peptides bind”. For the same molecule, the “peptide binding to THP-1 monocytic cell line” value in the test on THP-1 cells was “Neither of the 30 aa MASP peptides bind”.

B1: wild-type rMASP-1 (^444KLMAR^448): recombinant wild-type MASP-1, a serine protease from the complement system, containing 444KLMAR448 (protein, UniProt P48740 20-699, looked up)
Mannan-binding lectin serine …: HTVELNNMFGQIQSPGYPDSYPSDSEVTWNITVPDGFRIKLYFMHFNLESSYLCEYDYVKVETEDQVLATFCGRETTDTEQTPGQEVVLSPGSFMSITFRSDFSNEERFTGFDAHYMAVDVDECKEREDEELSCDHYCHNYIGGYYCSCRFGYILHTDNRTCRVECSDNLFTQRTGVITSPDFPNPYPKSSECLYTIELEEGFMVNLQFEDIFDIEDHPEVPCPYDYIKIKVGPKVLGPFCGEKAPEPISTQSHSVLILFHSDNSGENRGWRLSYRAAGNECPELQPPVHGKIEPSQAKYFFKDQVLVSCDTGYKVLKDNVEMDTFQIECLKDGTWSNKIPTCKIVDCRAPGELEHGLITFSTRNNLTTYKSEIKYSCQEPYYKMLNNNTGIYTCSAQGVWMNKVLGRSLPTCLPVCGLPKFSRKLMARIFNGRPAQKGTTPWIAMLSHLNGQPFCGGSLLGSSWIVTAAHCLHQSLDPEDPTLRDSDLLSPSDFKIILGKHWRLRSDENEQHLGVKHTTLHPQYDPNTFENDVALVELLESPVLNAFVMPICLPEGPQQEGAMVIVSGWGKQFLQRFPETLMEIEIPIVDHSTCQKAYAPLKKKVTRDMICAGEKEGGKDACAGDSGGPMVTLNRERGQWYLVGTVSWGDDCGKKDRYGVYSYIHHNKDWIQRVTGVRN
B1: the “recombinant MASP-1 binding to A. fumigatus growth stages” value in the test on Aspergillus fumigatus is listed as “binding was detected for all growth stages”. The “binding of rMASP-1 to A. fumigatus conidia (mean fluorescence intensity)” value (“binding … (mean fluorescence intensity)” for short) in the test with A. fumigatus conidia [2] is on record as “binds”.

B2: zymogen mutated rMASP-1: zymogen version of the mutated rMASP-1 (444DDDDK448) (protein, UniProt P48740 20-699, looked up, variant K444D L445D M446D A447D R448K)
pro-form: HTVELNNMFGQIQSPGYPDSYPSDSEVTWNITVPDGFRIKLYFMHFNLESSYLCEYDYVKVETEDQVLATFCGRETTDTEQTPGQEVVLSPGSFMSITFRSDFSNEERFTGFDAHYMAVDVDECKEREDEELSCDHYCHNYIGGYYCSCRFGYILHTDNRTCRVECSDNLFTQRTGVITSPDFPNPYPKSSECLYTIELEEGFMVNLQFEDIFDIEDHPEVPCPYDYIKIKVGPKVLGPFCGEKAPEPISTQSHSVLILFHSDNSGENRGWRLSYRAAGNECPELQPPVHGKIEPSQAKYFFKDQVLVSCDTGYKVLKDNVEMDTFQIECLKDGTWSNKIPTCKIVDCRAPGELEHGLITFSTRNNLTTYKSEIKYSCQEPYYKMLNNNTGIYTCSAQGVWMNKVLGRSLPTCLPVCGLPKFSRDDDDKIFNGRPAQKGTTPWIAMLSHLNGQPFCGGSLLGSSWIVTAAHCLHQSLDPEDPTLRDSDLLSPSDFKIILGKHWRLRSDENEQHLGVKHTTLHPQYDPNTFENDVALVELLESPVLNAFVMPICLPEGPQQEGAMVIVSGWGKQFLQRFPETLMEIEIPIVDHSTCQKAYAPLKKKVTRDMICAGEKEGGKDACAGDSGGPMVTLNRERGQWYLVGTVSWGDDCGKKDRYGVYSYIHHNKDWIQRVTGVRN
modifications: pro-form zymogen, enterokinase site
B2: the “binding … (mean fluorescence intensity)” value in the test with A. fumigatus conidia [2] is given as “Neither the active nor zymogen mutated rMASP-1 (44^4DDDDK^448) bound”.

B3: mutated rMASP-1 (^444DDDDK^448): recombinant MASP-1 in which 444KLMAR448 was substituted by DDDDK (SEQ ID NO: 4), activated version (protein, UniProt P48740 20-699, looked up, variant K444D L445D M446D A447D R448K)
Mannan-binding lectin serine …: HTVELNNMFGQIQSPGYPDSYPSDSEVTWNITVPDGFRIKLYFMHFNLESSYLCEYDYVKVETEDQVLATFCGRETTDTEQTPGQEVVLSPGSFMSITFRSDFSNEERFTGFDAHYMAVDVDECKEREDEELSCDHYCHNYIGGYYCSCRFGYILHTDNRTCRVECSDNLFTQRTGVITSPDFPNPYPKSSECLYTIELEEGFMVNLQFEDIFDIEDHPEVPCPYDYIKIKVGPKVLGPFCGEKAPEPISTQSHSVLILFHSDNSGENRGWRLSYRAAGNECPELQPPVHGKIEPSQAKYFFKDQVLVSCDTGYKVLKDNVEMDTFQIECLKDGTWSNKIPTCKIVDCRAPGELEHGLITFSTRNNLTTYKSEIKYSCQEPYYKMLNNNTGIYTCSAQGVWMNKVLGRSLPTCLPVCGLPKFSRDDDDKIFNGRPAQKGTTPWIAMLSHLNGQPFCGGSLLGSSWIVTAAHCLHQSLDPEDPTLRDSDLLSPSDFKIILGKHWRLRSDENEQHLGVKHTTLHPQYDPNTFENDVALVELLESPVLNAFVMPICLPEGPQQEGAMVIVSGWGKQFLQRFPETLMEIEIPIVDHSTCQKAYAPLKKKVTRDMICAGEKEGGKDACAGDSGGPMVTLNRERGQWYLVGTVSWGDDCGKKDRYGVYSYIHHNKDWIQRVTGVRN
modifications: activated
On to B3, for which the “binding … (mean fluorescence intensity)” value is recorded as “did not bind” in the test with A. fumigatus conidia [2] and “Neither the active nor zymogen mutated rMASP-1 (44^4DDDDK^448) bound” with A. fumigatus conidia [2] (listed as active mutated rMASP-1).

Source of the values: patent US20250304939A1, “TAILORED ANTI-FUNGAL DRUGS AND TOOLS TO DIAGNOSE INVASIVE FUNGAL INFECTIONS” (priority 2022, published 2025).
